These compounds were tested against T1, human sphingosine-1-phosphate 1 receptor (S1P1 receptor) (Homo sapiens, UniProt P21453) (assay: Ca2+ inducing ability (calcium increase, Calcium 5 assay kit) in CHO cells overexpressing human S1P1 receptor).
T1 construct: host or cells: CHO-K1
Assay type: cell-based
Experimental: Experimental Example: Evaluation of Ca^2+ Inducing Ability of a Test Compound Using a Cell Line Expressing Human Sphingosine-1-Phosphate
It is a functional test method in which a therapeutic efficacy of an agonist compound is determined by an increase in calcium in CHO (Chinese hamster ovary) cells, which overexpress human sphingosine-1-phosphate 1 receptor (S1P1 receptor) that react with sphingosine-1-phosphate (S1P). […] coupled to Gi protein that reacts with the S1P1 receptor and increases intracellular calcium concentration. CHO-K1 cells, which are used for preparing a stable cell line, show no change in the calcium concentration by S1P, and thus they are good for checking signals from human S1P receptors after transfecting the cells with each subtype of the receptors.
To prepare CHO cells which overexpress human S1P1-S1P5, human clones for each subtype having HA at the N terminal residue (S1P1: EDG010 TN00, S1P2: EDG020TN00, S1P3: EDG030TN00, S1P4: EDG060TN00, S1P5: EDG080TN00) were purchased from Missouri S&T cDNA Resource Center and co-transfected with G-protein alpha subunit (G-alpha-16) into CHO-K1 cells. After separating cells by fluorescence-activated cell sorting (FACS, LK BioScience, JSAN) using HA-antibodies (MACS, Anti-HA-PE), they were selectively cultured in the medium with 10% FBS (Gibco, USA), 0.5 mg/mL Geneticin (Gibco) and 0.2 mg/mL Hygromycin B F12 (Gibco) to obtain the desired cells.
A calcium measurement kit (Calcium 5 assay kit, Molecular Devices) was used to select an agonist compound. The principle of calcium measurement is that calcium-sensitive dyes are applied to cells, they enter into the cytoplasm of the cells during incubation, and when a ligand binds to a certain receptor to release calcium into the cytoplasm, the dyes bind to said calcium to induce fluorescence which is measured. This test method can sensitively measure only the intracellular calcium concentration change because any change that may occur outside the cells is masked by a masking dye.
The experimental procedure was as follows. One day before calcium measurement, CHO cells overexpressing hS1P1-hS1P5 were dispensed into a 96-well plate (bottom clear black well) in 3×10^4 cells per well and cultured at 37° C. under 5% carbon dioxide condition for one day. 100 μl of calcium dyes mixed with Assay Buffer (1×HBSS, 20 mM HEPES, 2.5 mM probenecid, pH 7.4) were dispensed into culture solution in well and cultured at 37° C. for one hour. Test compounds were dissolved in 100% DMSO to prepare 1 μl solution per each concentration, and each solution was mixed with 199 μl Assay Buffer such that the concentrations were […]. The plate cultured with the calcium dyes was put into FlaxstationII (Molecular Devices), and the prepared test compounds (the final concentrations of the test compounds: 10, 1, 0.1, 0.01, 0.001 and 0.0001 μM) were programmed to be automatically inoculated in 50 μl per each well. For a total of 90 seconds, relative fluorescence unit (RFU) values were measured. The value of Reference (S1P substance 1 μM) deducting the blank value was set as 100%, and EC50 values of the test compounds were calculated by prism.

T1 sequence (P21453 whole entry): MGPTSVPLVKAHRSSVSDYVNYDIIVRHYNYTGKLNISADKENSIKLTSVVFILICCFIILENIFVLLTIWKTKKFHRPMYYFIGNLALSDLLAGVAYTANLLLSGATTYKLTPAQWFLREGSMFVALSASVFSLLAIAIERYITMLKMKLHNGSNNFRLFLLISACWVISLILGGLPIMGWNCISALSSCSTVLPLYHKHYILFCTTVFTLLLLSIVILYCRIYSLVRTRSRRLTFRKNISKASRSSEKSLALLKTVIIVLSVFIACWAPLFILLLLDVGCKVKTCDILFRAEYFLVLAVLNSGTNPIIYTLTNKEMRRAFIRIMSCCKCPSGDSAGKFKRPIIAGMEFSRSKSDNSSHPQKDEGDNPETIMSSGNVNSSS

Point of comparison: `O=C(O)C1CCN(CC2=Cc3c(F)cc(OCc4ccc5c(c4)c(Cl)nn5C4CCCC4)cc3OC2)CC1` [Example 19, 1-[7-(3-chloro-1-cyclopentyl-1H-indazol-5-ylmethoxy)-5-fluoro-2H-chromene-3-ylmethyl]-piperidin-4-carboxylic acid], EC50 70.8 nM. Against it:
- CC(C)n1nc(Cl)c2cc(COc3ccc4c(c3)OCC(CN(C)CC(=O)O)=C4)ccc21 [Example 1, {[7-(3-chloro-1-isopropyl-1H-indazol-5-ylmethoxy)-2H-chromene-3-ylmethyl]-methyl-amino}-acetic acid] — 17-fold lower, 4.07 nM
- CC(C)n1nc(Cl)c2cc(COc3ccc4c(c3)OCC(CN3CC(C(=O)O)C3)=C4)ccc21 [Example 2, 1-[7-(3-chloro-1-isopropyl-1H-indazol-5-ylmethoxy)-2H-chromene-3-ylmethyl]-azetidin-3-carboxylic acid] — 34-fold lower, 2.09 nM
- CCCn1nc2ccc(COc3ccc4c(c3)OCC(CN3CC(C(=O)O)C3)=C4)cc2c1Cl [Example 3, 1-[7-(3-chloro-2-propyl-2H-indazol-5-ylmethoxy)-2H-chromene-3-ylmethyl]-azetidin-3-carboxylic acid] — the same, 70.8 nM
- CC(C)n1nc(Cl)c2cc(COc3ccc4c(c3)OCC(CN3CCC(C(=O)O)CC3)=C4)ccc21 [Example 4, 1-[7-(3-chloro-1-isopropyl-1H-indazol-5-ylmethoxy)-2H-chromene-3-ylmethyl]-piperidin-4-carboxylic acid] — 7.8-fold lower, 9.12 nM
- CC(C)n1nc(Cl)c2cc(COc3ccc4c(c3)OCC(CN3CCC[C@@H](C(=O)O)C3)=C4)ccc21 [Example 5, (R)-1-[7-(3-chloro-1-Isopropyl-1H-indazol-5-ylmethoxy)-2H-chromene-3-ylmethyl]-piperidin-3-carboxylic acid] — 6.4-fold lower, 11 nM
- CC(C)n1nc(Cl)c2cc(COc3ccc4c(c3)OCC(CN3CCC[C@H](C(=O)O)C3)=C4)ccc21 [Example 6, (S)-1-[7-(3-chloro-1-H-isopropyl-1H-indazol-5-ylmethoxy)-2H-chromene-3-ylmethyl]-piperidin-3-carboxylic acid] — 5.5-fold lower, 12.9 nM
- CC(C)n1nc(Cl)c2cc(COc3ccc4c(c3)OCC(CN3CC[C@H](C(=O)O)C3)=C4)ccc21 [Example 7, (S)-1-[7-(3-chloro-1-H-isopropyl-1H-indazol-5-ylmethoxy)-2H-chromene-3-ylmethyl]-pyrrolidin-3-carboxylic acid] — 12-fold lower, 5.75 nM
- CC(C)n1nc(Cl)c2cc(COc3ccc4c(c3)OCC(CN3CC(CCl)(C(=O)O)C3)=C4)ccc21 [Example 8, 1-[7-(3-chloro-1-isopropyl-1H-indazol-5-ylmethoxy)-2H-chromene-3-ylmethyl]-chloromethyl-azetidin-3-carboxylic acid] — 11-fold lower, 6.31 nM
- CC(C)n1nc(Cl)c2cc(COc3ccc4c(c3)OCC(CN3CC[C@@H](C(=O)O)C3)=C4)ccc21 [Example 9, (R)-1-[7-(3-chloro-1-Isopropyl-1H-indazol-5-ylmethoxy)-2H-chromene-3-ylmethyl]-pyrrolidin-3-carboxylic acid] — 4.9-fold lower, 14.4 nM
- CC1=C(CN2CCC(C(=O)O)CC2)COc2cc(OCc3ccc4c(c3)c(Cl)nn4C(C)C)ccc21 [Example 10, 1-[7-(3-chloro-1-Isopropyl-1H-indazol-5-ylmethoxy)-4-methyl-2H-chromene-3-ylmethyl]-piperidin-4-carboxylic acid] — 26-fold lower, 2.75 nM
- CC(C)n1nc(Cl)c2cc(COc3ccc4c(c3)OCC(CN3CCC(C(=O)O)CC3)=C4Cl)ccc21 [Example 11, 1-[4-chloro-7-(3-chloro-1-H-isopropyl-1H-indazol-5-ylmethoxy)-2H-chromene-3-ylmethyl]-piperidin-4-carboxylic acid] — 8.5-fold lower, 8.32 nM
- CC(C)n1nc(Cl)c2cc(COc3cc(F)c4c(c3)OCC(CN3CCC(C(=O)O)CC3)=C4)ccc21 [Example 12, 1-[7-(3-chloro-1-H-isopropyl-1H-indazol-5-ylmethoxy)-5-fluoro-2H-chromene-3-ylmethyl]-piperidin-4-carboxyl acid] — 4.9-fold lower, 14.4 nM
- CC(C)n1nc(C(F)(F)F)c2cc(COc3ccc4c(c3)OCC(CN3CCC(C(=O)O)CC3)=C4)ccc21 [Example 13, 1-[7-(1-Isopropyl-3-trifluoromethyl-1H-indazol-5-ylmethoxy)-2H-chromene-3-ylmethyl]-piperidin-4-carboxylic acid] — 4.1-fold lower, 17.4 nM
- CCc1nn(C(C)C)c2ccc(COc3ccc4c(c3)OCC(CN3CCC(C(=O)O)CC3)=C4)cc12 [Example 14, 1-[7-(1-H-isopropyl-3-ethyl-1H-indazol-5-ylmethoxy)-2H-chromene-3-ylmethyl]-piperidin-4-carboxylic acid] — 5.9-fold lower, 12 nM
- CC(C)n1nc(Cl)c2cc(COc3ccc4c(c3)OCC(CN3CCCC(C(=O)O)CC3)=C4)ccc21 (stereo not drawn) [Example 15, 1-[7-(3-chloro-1-isopropyl-1H-indazol-5-ylmethoxy)-2H-chromene-3-ylmethyl]-azepane-4-carboxylic acid] — 11-fold lower, 6.31 nM
- CCCn1nc(Cl)c2cc(COc3ccc4c(c3)OCC(CN3CC(C(=O)O)C3)=C4)ccc21 [Example 16, 1-[7-(3-chloro-1-propyl-1H-indazol-5-ylmethoxy)-2H-chromene-3-ylmethyl]-azetidin-3-carboxylic acid] — 1.6-fold lower, 43.6 nM
- CCCn1nc(Cl)c2cc(COc3ccc4c(c3)OCC(CN3CCC(C(=O)O)CC3)=C4)ccc21 [Example 17, 1-[7-(3-chloro-1-propyl-1H-Indazol-5-ylmethoxy)-2H-chromene-3-ylmethyl]-piperidin-4-carboxylic acid] — 3.4-fold lower, 20.9 nM
- O=C(O)C1CCN(CC2=Cc3ccc(OCc4ccc5c(c4)c(Cl)nn5CC4CC4)cc3OC2)CC1 [Example 18, 1-[7-(3-chloro-1-cyclopropylmethyl-1H-indazol-5-ylmethoxy)-2H-chromene-3-ylmethyl]-piperidin-4-carboxylic acid] — within 1.5-fold, 64.6 nM
- CC(C)Cn1nc(Cl)c2cc(COc3cc(F)c4c(c3)OCC(CN3CCC(C(=O)O)CC3)=C4)ccc21 [Example 20, 1-[7-(3-chloro-1-isobutyl-1H-indazol-5-ylmethoxy)-5-fluoro-2H-chromene-3-ylmethyl]-piperidin-4-carboxylic acid] — 14-fold lower, 5.13 nM
- CC(C)Cn1nc(Cl)c2cc(COc3cc(F)c4c(c3)OCC(CN3CCCC(C(=O)O)CC3)=C4)ccc21 (stereo not drawn) [Example 21, 1-[7-(3-chloro-1-Isobutyl-1H-indazol-5-ylmethoxy)-5-fluoro-2H-chromene-3-ylmethyl]-azepane-4-carboxylic acid] — 4.9-fold lower, 14.4 nM

From US12479836B2, “Sphingosine-1-phosphate receptor agonist, preparation method therefor, and pharmaceutical composition containing same as active ingredient” (priority 2019, dated 2025)
